Assay results reported in patent US10494357B2, “Tocotrienol derivatives, pharmaceutical composition and method of use in 5-lipoxygenase related diseases” (UNIVERSITÉ D'ANGERS, priority 2015, dated 2019).
Read-outs that look alike come from different tables or passages of the source.

Assays:
HepaRG® cells = assay: Hepatotoxicity assay; assay type: cell-based; details: 48 h
Protocol: HepaRG® cells were seeded at a density of 2.6×10^4 cells/cm^2 in Williams' E medium supplemented with 2 mM glutamax, 100 U/mL penicillin, 100 μg/mL streptomycin, 10% Hyclone fetal calf serum, 5 μg/mL insulin, and […] hydrocortisone hemisuccinate. At confluence, after 2 weeks, HepaRG® cells were shifted to the same medium supplemented with 1.7% dimethyl sulfoxide for 2 additional weeks in order to obtain confluent differentiated cultures containing equal proportions of hepatocyte-like and progenitors/primitive biliary-like cell. These differentiated hepatic cell cultures were used for analytical assays.
Then, the cells were exposed to a tocotrienol derivative in Williams' E medium supplemented with 2% Hyclone fetal calf serum containing 0.2% dimethyl sulfoxide during 48 h.

human recombinant 5-LO = target: T1, human recombinant 5-LO (Homo sapiens, UniProt P09917); assay: Human recombinant 5-LO activity; assay type: biochemical
T1 construct: made in house; inferred to be the same preparation
T1 sequence (P09917 1-674): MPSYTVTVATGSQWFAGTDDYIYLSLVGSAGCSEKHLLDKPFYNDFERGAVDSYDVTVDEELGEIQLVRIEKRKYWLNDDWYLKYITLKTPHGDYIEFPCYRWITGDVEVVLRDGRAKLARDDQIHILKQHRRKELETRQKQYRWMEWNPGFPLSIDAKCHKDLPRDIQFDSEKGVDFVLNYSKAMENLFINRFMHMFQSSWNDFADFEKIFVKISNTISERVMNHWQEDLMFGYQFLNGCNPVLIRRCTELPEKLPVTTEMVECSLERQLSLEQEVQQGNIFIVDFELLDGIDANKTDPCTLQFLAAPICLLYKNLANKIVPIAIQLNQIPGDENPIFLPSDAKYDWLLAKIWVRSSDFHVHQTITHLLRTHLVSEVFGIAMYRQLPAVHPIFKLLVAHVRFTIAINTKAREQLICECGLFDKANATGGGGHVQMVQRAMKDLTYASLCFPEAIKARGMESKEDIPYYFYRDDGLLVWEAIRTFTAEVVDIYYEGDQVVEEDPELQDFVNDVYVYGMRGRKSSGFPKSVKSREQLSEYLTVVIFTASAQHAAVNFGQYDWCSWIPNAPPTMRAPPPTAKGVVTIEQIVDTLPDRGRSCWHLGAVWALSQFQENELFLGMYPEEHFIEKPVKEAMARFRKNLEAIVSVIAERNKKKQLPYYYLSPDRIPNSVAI
Protocol: Methods for measuring the 5-LO activity are well-known from the skilled artisan. An example of such a method is disclosed in the Examples.
Human recombinant 5-LO was pre-incubated with the test compounds for 10 min at 4° C. and pre-warmed for 30 s at 37° C. 5-LO product formation was initiated by addition of 2 mM CaCl2 and 20 μM arachidonic acid. After 10 min at 37° C., the reaction was terminated by addition of 1 ml ice-cold methanol.

[1] = system: 5-LO product formation in neutrophils; assay: 5-LO product formation in neutrophils; assay type: cell-based, human; details: for IC50: Homo sapiens, Neutrophil; for 5-LO product formation in neutrophils (A23187) residual activities [% vehicle control]: A23187 alone; for 5-LO product formation in neutrophils (AA + A23187) residual activities [% vehicle control]: A23187 plus 20 μM AA
Protocol: Freshly isolated neutrophils (1×10^7/ml) were pre-incubated with the test compounds for 15 min at 37° C. Then, 5-LO product formation was started by addition of 2.5 μM Ca^2+-ionophore A23187 alone or A23187 plus 20 μM arachidonic acid (AA). The reaction was stopped after 10 min at 37° C. with 1 ml of methanol. Major 5-LO metabolites (LTB4 and its all-trans isomers and 5-H(P)ETE) were extracted and analyzed by HPLC as described (Werz: Blood 2002, 99, 1044-1052). Cysteinyl-LTs C4, D4 and E4 and oxidation products of LTB4 were not determined.

LTC4 formation = assay: Zymosan-induced peritonitis in mice, LTC4 level in peritoneal exudate; assay type: in vivo; details: 10 mg/kg i.p. 30 min before zymosan, measured 30 min after zymosan injection
Protocol: Zymosan was used to trigger peritonitis in mice pre-treated with a-amplexichromanol or Zileuton, each at a dose of 10 mg/kg. The resulting LTC4 levels in the peritoneal exudate were measured 30 min after zymosan injection.
α-amplexichromanol (10 mg/kg) or vehicle (0.5 ml of 0.9% saline solution containing 2% DMSO) were given i.p. 30 min before zymosan i.p. injection (0.5 ml of a 2 mg/ml suspension in 0.9% w/v saline). Mice were killed by inhalation of CO2 at the indicated time points followed by a peritoneal lavage with 3 ml of cold PBS pH 7.4. Exudates were collected. After centrifugation of the exudates (18,000× g, 5 min, 4° C.), the amounts of cysteinyl-LTs were analyzed in the supernatant by enzyme immunoassay (Enzo Life Sciences GmbH, Lörrach, Germany) according to manufacturer's instructions.

IL-8 = IL-8 release from LPS-stimulated monocytes (ELISA); assay type: cell-based; details: LPS 10 ng/ml
Protocol: (§1) First, different concentrations of δ-amplexichromanol (0.1; 1 and 10 μM) were added to the stimulated monocytes.
(§2) Secondly, monocytes were stimulated with lipopolysaccharide (LPS, 10 ng/ml for 4-18 h) for inducing the formation of pro-inflammatory cytokines.
(§3) Finally, the resulting levels of proinflammatory cytokines were measured by ELISA. Dexamethasone (1 μM) was used as control.

TNF-α = TNF-α release from LPS-stimulated monocytes (ELISA); assay type: cell-based; details: LPS 10 ng/ml
Protocol: as §1, §2, §3

IL-1β = IL-1β release from LPS-stimulated monocytes (ELISA); assay type: cell-based; details: LPS 10 ng/ml
Protocol: as §1, §2, §3

[2] = human recombinant 5-LO, read-out: IC50 (nM) 5-LO activity

Row | SMILES | Number of cells (HepaRG® cells; 0.1 μM) | Number of cells (HepaRG® cells; 1 μM) | Number of cells (HepaRG® cells; 10 μM) | IC50 (human recombinant 5-LO; [2]) | IC50 [1] | further results
1 | C/C(=C\CC/C(C)=C/CCC1(C)CCc2c(C)c(O)c(C)c(C)c2O1)CCC=C(CO)CO (centres unmarked) [Compound 1, 2-((4E,8E)-11-(6-hydroxy-2,5,7,8-tetramethylchroman-2-yl)-4,8-dimethylundeca-4,8-dien-1-ylidene)propane-1,3-diol] | 4389 | 4705 | 4702 | 106 ± 29 nM | 19 ± 4 nM | LTC4 level in the peritoneal exudate (LTC4 formation): the same than the LTC4 level obtained by Zileuton
2 | C/C(=C/CC/C(C)=C/CC/C(C)=C/CCC1(C)CCc2cc(O)cc(C)c2O1)CO (centres unmarked) [Compound 23, 2-((3E,7E,11Z)-13-hydroxy-4,8,12-trimethyltrideca-3,7,11-trien-1-yl)-2,8-dimethylchroman-6-ol] | – | – | – | 137 ± 29 nM | 220 ± 40 nM | –
3 | C/C(=C/CC/C(C)=C/CC/C(C)=C/CCC1(C)CCc2cc(O)c(C)c(C)c2O1)CO (centres unmarked) [Compound 33, 2-((3E,7E,11Z)-13-hydroxy-4,8,12-trimethyltrideca-3,7,11-trien-1-yl)-2,7,8-trimethylchroman-6-ol] | 4363 | 4412 | 4610 | 120 ± 29 nM | 140 ± 21 nM | –
4 | CC(c1cc2ccccc2s1)N(O)C(N)=O (centres unmarked) [Zileuton, reference compound] | 4313 | 4244 | 4554 | – | – | –
5 | C/C(=C\CC/C(C)=C/CCC1(C)CCc2cc(O)cc(C)c2O1)CCC=C(CO)CO (centres unmarked) [Compound 26, 2-((4E,8E)-11-(6-hydroxy-2,8-dimethylchroman-2-yl)-4,8-dimethylundeca-4,8-dien-1-ylidene)propane-1,3-diol] | – | – | – | 148 ± 35 nM | 419 ± 33 nM | 5-LO product formation in neutrophils (A23187) residual activities [% vehicle control] ([1]; 0.1 μM): 17.4 ± 8.8 % vehicle control; 5-LO product formation in neutrophils (AA + A23187) residual activities [% vehicle control] ([1]; 0.1 μM): n.i.^a; 5-LO product formation in neutrophils (A23187) residual activities [% vehicle control] ([1]; 1 μM): 10.0 ± 2.8 % vehicle control; 5-LO product formation in neutrophils (AA + A23187) residual activities [% vehicle control] ([1]; 1 μM): 15.4 ± 4.4 % vehicle control; 5-LO product formation in neutrophils (A23187) residual activities [% vehicle control] ([1]; 10 μM): 0.0 ± 0.0 % vehicle control; 5-LO product formation in neutrophils (AA + A23187) residual activities [% vehicle control] ([1]; 10 μM): 0.6 ± 0.6 % vehicle control; IL-8 release (%) (IL-8; 1 μM): n.i.^a; TNF-α release (%) (TNF-α; 1 μM): n.i.^a; IL-1β release (%) (IL-1β; 1 μM): 86 ± 11%
6 | C[C@@H]1C[C@H]2[C@@H]3CCC4=CC(=O)C=C[C@]4(C)[C@@]3(F)[C@@H](O)C[C@]2(C)[C@@]1(O)C(=O)CO [dexamethasone] | – | – | – | – | – | IL-8 release (%) (IL-8; 1 μM): 83.5 ± 3.2%; IL-8 release (%) (IL-8; 10 μM): 30.6 ± 1.5%; TNF-α release (%) (TNF-α; 1 μM): 42.2 ± 0.8%; TNF-α release (%) (TNF-α; 10 μM): 13.3 ± 2.6%; IL-1β release (%) (IL-1β; 1 μM): 68.7 ± 2.4%; IL-1β release (%) (IL-1β; 10 μM): 49.9 ± 4.8%
7 | CC(=O)N(O)C/C=C/c1cccc(Oc2ccccc2)c1 [BWA4C, N-RE)-3-(3-phenoxyphenye-prop-2-enyllacetohydroxamic acid, reference compound] | – | – | – | – | 41 ± 1 nM | –
8 | C/C(=C\CC/C(C)=C/CCC1(C)CCc2c(C)c(O)cc(C)c2O1)CCC=C(CO)CO (centres unmarked) [Compound 9, 2-((4E,8E)-11-(6-hydroxy-2,5,8-trimethylchroman-2-yl)-4,8-dimethylundeca-4,8-dien-1-ylidene)propane-1,3-diol] | 4429 | 4436 | 4785 | – | 114 ± 35 nM | IC50 (human recombinant 5-LO): 91 ± 15 nM
9 | C/C(=C\CC/C(C)=C/CCC1(C)CCc2cc(O)c(C)c(C)c2O1)CCC=C(CO)CO (centres unmarked) [Compound 34, 2-((4E,8E)-11-(6-hydroxy-2,7,8-trimethylchroman-2-yl)-4,8-dimethylundeca-4,8-dien-1-ylidene)propane-1,3-diol] | 4212 | 4562 | 4677 | 110 nM | 67 ± 54 nM | –
